How the values were obtained:
Format in all cases: in vivo
[1] = system: velvetleaf (Abutilon theophrasti); test: Test C postemergence; details: Abutilon theophrasti, post-emergence, Postemergence, scale 0 to 100, read-out: Plant response rating, Velvetleaf
[2] = system: morningglory (Ipomoea coccinea); test: Test C postemergence; details: Ipomoea, post-emergence, 336 h, Postemergence, scale 0 to 100, read-out: Plant response rating, Morningglory
[3] = system: large (Lg) crabgrass (Digitaria sanguinalis); test: Test C postemergence; details: Digitaria sanguinalis, post-emergence, 336 h, Postemergence, scale 0 to 100, read-out: Plant response rating, Crabgrass, Large
kochia (Kochia scoparia) = test: Test C postemergence; details: Bassia scoparia, post-emergence, Postemergence, scale 0 to 100, read-out: Plant response rating, Kochia
[4] = system: winter wheat (Triticum aestivum); test: Test C postemergence; details: Triticum aestivum, post-emergence, 336 h, Postemergence, scale 0 to 100, read-out: Plant response rating, Wheat
[5] = system: galium (catchweed bedstraw, Galium aparine); test: Test C postemergence; details: Galium, post-emergence, 336 h, Postemergence, scale 0 to 100, read-out: Plant response rating, Galium
[6] = system: velvetleaf (Abutilon theophrasti); test: Test C preemergence; details: Abutilon theophrasti, pre-emergence, scale 0 to 100, read-out: Plant response rating, Velvetleaf
In short: (§1)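 Greenhouse test; preemergence on seeded loam-sand soil or spray on 1- to 4-leaf plants; solvent + surfactant vehicle; 13-15 day hold; visual comparison with controls; 0 (no effect)-100 (complete control).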

corn (Zea mays) = test: Test C preemergence; details: Zea mays, pre-emergence, 336 h, scale 0 to 100
In short: as §1

[7] = system: morningglory (Ipomoea coccinea); test: Test C preemergence; details: Ipomoea, pre-emergence, 336 h, scale 0 to 100, read-out: Plant response rating, Morningglory
In short: as §1

[8] = system: yellow nutsedge (Cyperus esculentus); test: Test C preemergence; details: Cyperus, pre-emergence, 336 h, scale 0 to 100, read-out: Plant response rating, Nutsedge, Yellow
In short: as §1

[9] = system: large (Lg) crabgrass (Digitaria sanguinalis); test: Test C preemergence; details: Digitaria sanguinalis, pre-emergence, 336 h, scale 0 to 100, read-out: Plant response rating, Crabgrass, Large
In short: as §1

[10] = system: johnsongrass (Sorghum halepense); test: Test C preemergence; details: Sorghum halepense, pre-emergence, 336 h, scale 0 to 100, read-out: Plant response rating, Johnsongrass
In short: as §1

[11] = system: oilseed rape (Brassica napus); test: Test C preemergence; details: Brassica napus, pre-emergence, scale 0 to 100, read-out: Plant response rating, Oilseed Rape
In short: as §1

[12] = system: ragweed (common ragweed, Ambrosia elatior); test: Test C preemergence; details: Ambrosia artemisiifolia, pre-emergence, 336 h, scale 0 to 100, read-out: Plant response rating, Ragweed
In short: as §1

[13] = system: winter wheat (Triticum aestivum); test: Test C preemergence; details: Triticum aestivum, pre-emergence, 336 h, scale 0 to 100, read-out: Plant response rating, Wheat
In short: as §1

[14] = system: barnyardgrass (Echinochloa crus-galli); test: Test C preemergence; details: Echinochloa crus-galli, pre-emergence, read-out: Plant response rating, Barnyardgrass
In short: as §1

[15] = system: galium (catchweed bedstraw, Galium aparine); test: Test C preemergence; details: Galium, pre-emergence, 336 h, scale 0 to 100, read-out: Plant response rating, Galium
In short: as §1

soybean (Glycine max) = test: Test C preemergence; details: Glycine max, pre-emergence, scale 0 to 100, read-out: Plant response rating, Soybean
In short: as §1

[16] = system: giant foxtail (Setaria faberii); test: Test C preemergence; details: Setaria faberi, pre-emergence, 336 h, scale 0 to 100, read-out: Plant response rating, Foxtail, Giant
In short: as §1

[17] = system: blackgrass (Alopecurus myosuroides); test: Test C preemergence; details: Alopecurus myosuroides, pre-emergence, 336 h, scale 0 to 100, read-out: Plant response rating, Blackgrass
In short: as §1

[18] = system: pigweed (Amaranthus retroflexus); test: Test C preemergence; details: Amaranthus retroflexus, pre-emergence, 336 h, scale 0 to 100, read-out: Plant response rating, Pigweed
In short: as §1

[19] = system: lambsquarters (Chenopodium album); test: Test C preemergence; details: Chenopodium album, pre-emergence, 336 h, scale 0 to 100, read-out: Plant response rating, Lambsquarters
In short: as §1

Fc1cccc(Oc2ncc(Cl)cn2)c1Oc1ncc(Cl)cn1 [Compound 21, 2,2′-[[3-fluoro-1,2-phenylene]bis(oxy)]bis[5-chloropyrimidine]]
pest or weed control at 31 g/ha ([1]; 31 g ai/ha): 50% | pest or weed control at 62 g/ha ([1]; 62 g ai/ha): 65% | pest or weed control at 125 g/ha ([1]; 125 g ai/ha): 70% | pest or weed control at 31 g/ha ([2]; 31 g ai/ha): 65% | pest or weed control at 62 g/ha ([2]; 62 g ai/ha): 70% | pest or weed control at 125 g/ha ([2]; 125 g ai/ha): 98% | pest or weed control at 16 g/ha ([3]; 16 g ai/ha): 5% | pest or weed control at 31 g/ha ([3]; 31 g ai/ha): 5% | pest or weed control at 62 g/ha ([3]; 62 g ai/ha): 5% | pest or weed control at 125 g/ha ([3]; 125 g ai/ha): 15% | pest or weed control at 16 g/ha (kochia (Kochia scoparia); 16 g ai/ha): 85% | pest or weed control at 31 g/ha (kochia (Kochia scoparia); 31 g ai/ha): 90% | pest or weed control at 62 g/ha (kochia (Kochia scoparia); 62 g ai/ha): 90% | pest or weed control at 125 g/ha (kochia (Kochia scoparia); 125 g ai/ha): 98% | plant injury at 31 g/ha ([4]; 31 g ai/ha): 0% | plant injury at 62 g/ha ([4]; 62 g ai/ha): 0% | plant injury at 125 g/ha ([4]; 125 g ai/ha): 5% | pest or weed control at 16 g/ha ([5]; 16 g ai/ha): 70% | pest or weed control at 31 g/ha ([5]; 31 g ai/ha): 80% | pest or weed control at 62 g/ha ([5]; 62 g ai/ha): 85% | pest or weed control at 125 g/ha ([5]; 125 g ai/ha): 90% | pest or weed control at 31 g/ha ([6]; 31 g ai/ha, preemergence): 100% | pest or weed control at 62 g/ha ([6]; 62 g ai/ha, preemergence): 100% | pest or weed control at 125 g/ha ([6]; 125 g ai/ha, preemergence): 100% | pest or weed control at 16 g/ha ([6]; Preemergence, 16 g ai/ha): 100% | Corn plant response rating (crop injury, 0 = no effect, 100 = complete kill) at 31 g/ha (corn (Zea mays); 31 g ai/ha, preemergence): 25% | Corn plant response rating (crop injury, 0 = no effect, 100 = complete kill) at 62 g/ha (corn (Zea mays); 62 g ai/ha, preemergence): 45% | Corn plant response rating (crop injury, 0 = no effect, 100 = complete kill) at 125 g/ha (corn (Zea mays); 125 g ai/ha, preemergence): 98% | Corn plant response rating (crop injury, 0 = no effect, 100 = complete kill) at 16 g/ha (corn (Zea mays); Preemergence, 16 g ai/ha): 5% | pest or weed control at 31 g/ha ([7]; 31 g ai/ha, preemergence): 80% | pest or weed control at 62 g/ha ([7]; 62 g ai/ha, preemergence): 85% | pest or weed control at 125 g/ha ([7]; 125 g ai/ha, preemergence): 98% | pest or weed control at 16 g/ha ([7]; Preemergence, 16 g ai/ha): 70% | pest or weed control at 31 g/ha ([8]; 31 g ai/ha, preemergence): 5% | pest or weed control at 62 g/ha ([8]; 62 g ai/ha, preemergence): 35% | pest or weed control at 125 g/ha ([8]; 125 g ai/ha, preemergence): 85% | pest or weed control at 16 g/ha ([8]; Preemergence, 16 g ai/ha): 0% | pest or weed control at 31 g/ha ([9]; 31 g ai/ha, preemergence): 100% | pest or weed control at 62 g/ha ([9]; 62 g ai/ha, preemergence): 100% | pest or weed control at 125 g/ha ([9]; 125 g ai/ha, preemergence): 100% | pest or weed control at 16 g/ha ([9]; Preemergence, 16 g ai/ha): 98% | pest or weed control at 31 g/ha ([10]; 31 g ai/ha, preemergence): 50% | pest or weed control at 62 g/ha ([10]; 62 g ai/ha, preemergence): 85% | pest or weed control at 125 g/ha ([10]; 125 g ai/ha, preemergence): 98% | pest or weed control at 16 g/ha ([10]; Preemergence, 16 g ai/ha): 5% | plant injury at 31 g/ha ([11]; 31 g ai/ha, preemergence): 100% | plant injury at 62 g/ha ([11]; 62 g ai/ha, preemergence): 100% | plant injury at 125 g/ha ([11]; 125 g ai/ha, preemergence): 100% | plant injury at 16 g/ha ([11]; Preemergence, 16 g ai/ha): 98% | pest or weed control at 31 g/ha ([12]; 31 g ai/ha, preemergence): 85% | pest or weed control at 62 g/ha ([12]; 62 g ai/ha, preemergence): 85% | pest or weed control at 125 g/ha ([12]; 125 g ai/ha, preemergence): 85% | pest or weed control at 16 g/ha ([12]; Preemergence, 16 g ai/ha): 65% | plant injury at 31 g/ha ([13]; 31 g ai/ha, preemergence): 40% | plant injury at 62 g/ha ([13]; 62 g ai/ha, preemergence): 50% | plant injury at 125 g/ha ([13]; 125 g ai/ha, preemergence): 90% | plant injury at 16 g/ha ([13]; Preemergence, 16 g ai/ha): 0% | pest or weed control at 31 g/ha ([14]; 31 g ai/ha, preemergence, scale 0 to 100): 85% | pest or weed control at 62 g/ha ([14]; 62 g ai/ha, preemergence, scale 0 to 100): 100% | pest or weed control at 125 g/ha ([14]; 125 g ai/ha, preemergence, scale 0 to 100): 100% | pest or weed control at 16 g/ha ([14]; Preemergence, 16 g ai/ha, scale 0 to 100 (0 no effect, 100 complete control)): 35% | pest or weed control at 31 g/ha ([15]; 31 g ai/ha, preemergence): 100% | pest or weed control at 62 g/ha ([15]; 62 g ai/ha, preemergence): 100% | pest or weed control at 125 g/ha ([15]; 125 g ai/ha, preemergence): 100% | pest or weed control at 16 g/ha ([15]; Preemergence, 16 g ai/ha): 98% | plant injury at 31 g/ha (soybean (Glycine max); 31 g ai/ha, preemergence): 90% | plant injury at 62 g/ha (soybean (Glycine max); 62 g ai/ha, preemergence): 95% | plant injury at 125 g/ha (soybean (Glycine max); 125 g ai/ha, preemergence): 98% | plant injury at 16 g/ha (soybean (Glycine max); Preemergence, 16 g ai/ha): 85% | pest or weed control at 31 g/ha ([16]; 31 g ai/ha, preemergence): 100% | pest or weed control at 62 g/ha ([16]; 62 g ai/ha, preemergence): 100% | pest or weed control at 125 g/ha ([16]; 125 g ai/ha, preemergence): 100% | pest or weed control at 16 g/ha ([16]; Preemergence, 16 g ai/ha): 90% | pest or weed control at 31 g/ha ([17]; 31 g ai/ha, preemergence): 30% | pest or weed control at 62 g/ha ([17]; 62 g ai/ha, preemergence): 90% | pest or weed control at 125 g/ha ([17]; 125 g ai/ha, preemergence): 90% | pest or weed control at 16 g/ha ([17]; Preemergence, 16 g ai/ha): 30% | pest or weed control at 31 g/ha ([18]; 31 g ai/ha, preemergence): 100% | pest or weed control at 62 g/ha ([18]; 62 g ai/ha, preemergence): 100% | pest or weed control at 125 g/ha ([18]; 125 g ai/ha, preemergence): 100% | pest or weed control at 16 g/ha ([18]; Preemergence, 16 g ai/ha): 100% | pest or weed control at 31 g/ha ([19]; 31 g ai/ha, preemergence): 100% | pest or weed control at 62 g/ha ([19]; 62 g ai/ha, preemergence): 100% | pest or weed control at 125 g/ha ([19]; 125 g ai/ha, preemergence): 98% | pest or weed control at 16 g/ha ([19]; Preemergence, 16 g ai/ha): 100%

Reference: patent US20170190671A1, “BIS(ARYL)CATECHOL DERIVATIVES AS HERBICIDES” (E I DU PONT DE NEMOURS AND COMPANY, priority 2014, published 2017)
